Like-named read-outs stand apart in the source and are kept apart here.
Columns and labels:
S. mansoni [1] = assay: Antischistosomal screen in S. mansoni-infected mice; assay type: in vivo, Schistosoma mansoni; details: for ED50: Schistosoma mansoni; for Worm burden reduction (WBR): single oral dose Ro 13-3978 100 mg/kg, praziquantel 400 mg/kg
Excerpt: Antischistosomal Screen. […] As described by Lombardo et al. (2019), cercariae of S. mansoni were obtained from infected Biomphalaria glabrata. By way of example, NMRI mice were infected subcutaneously with approximately 100 S. mansoni cercariae. […] Untreated mice (n=8) served as controls. At 21 d post-treatment, animals were killed by the CO2 method and dissected. Worms were removed by picking, then sexed and counted.

[2] = In vitro metabolic stability, mouse liver microsomes; assay type: in vitro ADME
Description: (§1) In Vitro Metabolic Stability. As described by Charman et al. (2020), metabolic stability assays were performed by incubating test compounds in liver microsomes at 37° C. and 0.4 mg/mL protein concentration. The metabolic reaction was initiated by the addition of an NADPH-regenerating system and quenched at various time points over a 60 min incubation period by the addition of acetonitrile containing diazepam as internal standard. Control samples (containing no NADPH) were included (and quenched at 2, 30 and 60 min) to monitor for potential degradation in the absence of cofactor.

[3] = Partition coefficient (Log D) by gradient HPLC; assay type: physicochemical
Excerpt: Partition Coefficient. Partition coefficient values (Log D) of the test compounds were estimated by correlation of their chromatographic retention properties against the characteristics of a series of standard compounds with known partition coefficient values using gradient HPLC (modification of a method reported by Lombardo et al., 2001).

[4] = In vitro metabolic stability, human liver microsomes; assay type: in vitro ADME
Description: as §1

LAPC4 cells = assay: Androgen-dependent cell-based assay (DHT, LAPC4); details: Homo sapiens
Description: Androgen-Dependent Cell-based Assay. As described by Jones and Diamond (2008), LAPC4 cells were cultured in phenol red free RPMI 1640 media supplemented with antibiotics and 10% FBS. […] […] Mean-effect plots (log[compound] vs. log[fractional effect]) were generated to determine the IC50 values for each test compound or combinations of test compounds at constant ratios.

[5] = Mouse exposure / pharmacokinetic studies; assay type: in vivo, mice; details: male, Swiss outbred, mouse, in vivo
[6] = Kinetic solubility (nephelometry); assay type: physicochemical
Description: Kinetic Solubility. Compounds in DMSO (10 mg/mL) were diluted into either pH 6.5 phosphate buffer or 0.01 M HCl (approx. pH 2.0) with the final DMSO concentration being 1%. Samples were then analysed via nephelometry to determine a solubility range (Bevan and Lloyd, 2000).

S. mansoni [7] = details: cited from earlier work
androgen-receptor = assay: DHT-induced (KLK3, FKBP5) and DHT-repressed (ZFP36L1) transcripts in LAPC4 cells; assay type: cell-based; details: Compound IE up to 10 μM
[8] = pH 7.4, chromatographic estimate, read-out: gLogD7.4
[9] = adult stage, single oral dose, mouse model, read-out: S. mansoni ED50, adult
[10] = juvenile stage, single oral dose, mouse model, read-out: S. mansoni ED50, juvenile
[11] = DHT-induced, androgen-dependent LAPC4 prostate cancer cell line, read-out: LAPC4 IC50

SMILES | chromatographic logD [3, 8] | ED50 (S. mansoni [1]; [9]) [mg/kg] | ED50 (S. mansoni [1]; [10]) [mg/kg] | microsomal CLint ([2]; mouse, microsomes) [µL/min/mg] | microsomal CLint ([4]; human, microsomes) [µL/min/mg] | IC50 (LAPC4 cells; [11]) [µM] | AUC(0-t) ([5]; po, 100 mg/kg) [µg·h/mL] | Cmax ([5]; po, 100 mg/kg) [ng/mL] | Sol2.0 ([6]; pH 2) | Sol6.5 ([6]; pH 6.5) | further results
CC1(C(F)(F)F)NC(=O)N(c2ccc(F)c(C(F)(F)F)c2)C1=O (stereo not drawn) [IA, 3-(4-Fluoro-3-(trifluoromethyl)phenyl)-5-methyl-5-(trifluoromethyl)imidazolidine-2,4-dione] | 3.5 |  |  |  |  |  |  |  |  |  | ED50 (S. mansoni [1]; po, read-out: S. mansoni ED50, adult): 14 mg/kg; ED50 (S. mansoni [1]; po, read-out: S. mansoni ED50, juvenile): 70 mg/kg; microsomal CLint ([2]; mouse liver microsomes, read-out: m CLint): < 7 µL/min/mg; microsomal CLint ([4]; human liver microsomes, read-out: h CLint): < 7 µL/min/mg; IC50 (LAPC4 cells; LAPC4, read-out: LAPC4 IC50): 5.2 µM; AUC(0-t) ([5]; 100 mg/kg PO in mice, read-out: AUC0-last): 966 µg·h/mL; Cmax ([5]; 100 mg/kg PO in mice, read-out: Cmax): 28000 ng/mL; Sol2.0 ([6]; kinetic solubility, 0.01 M HCl (approx. pH 2.0)): 25-50/25-50 μg/mL; Sol6.5 ([6]; kinetic solubility, pH 6.5 phosphate buffer): 25-50/25-50 μg/mL
[2H]C([2H])([2H])C1(C([2H])([2H])[2H])NC(=O)N(c2ccc(F)c(C(F)(F)F)c2)C1=O [IB, 3-(4-Fluoro-3-(trifluoromethyl)phenyl)-5,5-bis(methyl-d3)imidazolidine-2,4-dione] | 2.7 | 7.3 | 73 | < 7 | < 7 | 13 | 1820 | 43000 | >100/>100 μg/mL | >100/>100 μg/mL | 
CC1(C(F)F)NC(=O)N(c2ccc(F)c(C(F)(F)F)c2)C1=O (stereo not drawn) [ID, 5-(Difluoromethyl)-3-(4-fluoro-3-(trifluoromethyl)phenyl)-5-methylimidazolidine-2,4-dione] |  | 9 | 88 | < 7 | < 7 | 4.2 | 1650 | 42000 | 50-100/50-100 μg/mL | 50-100/50-100 μg/mL | chromatographic logD ([3]; pH 7.4): 3.2
O=C(C1CCCCC1)N1CC(=O)N2CCc3ccccc3C2C1 (stereo not drawn) [Praziquantel, praziquantel, reference compound] |  |  |  |  |  |  |  |  |  |  | Worm burden reduction (WBR) (S. mansoni [1]; NOD-SCID (Prkdc^scid) mice): 83%; Worm burden reduction (WBR) (S. mansoni [1]; NOD-SCID (Prkdc^scid) mice, listed as Praziquantel (PZQ)): 83%; Worm burden reduction (WBR) (S. mansoni [1]; outbred NMRI mice): 96%; activity against juvenile stages of the parasite (S. mansoni [7]; schistosome mouse model, literature): no significant activity
CC1(C)NC(=O)N(c2ccc([N+](=O)[O-])c(C(F)(F)F)c2)C1=O [nilutamide, reference compound] |  |  |  |  |  |  |  |  |  |  | levels of DHT-induced (KLK3, FKBP5) and DHT-repressed (ZFP36L1) transcripts (androgen-receptor): inhibited the DHT-induced increase of KLK3 and FKBP5 and prevented the repression of ZFP36L1; antischistosomal activity (S. mansoni [7]; Keiser et al., 2010): very weak

From US20250353819A1, “ARYL HYDANTOIN COMPOUNDS AND METHODS OF USE” (priority 2022, published 2025)
